Data taken from patent US10988533B2, “Anti-pre-BCR antagonists and methods” (STC.UNM, priority 2015, dated 2021).

Legend:
[1] = system: BCL6 levels in patient #280 cells; experiment: Western blotting of BCL6 levels in patient #280 cells; format: cell-based, human; settings: 24 hours
Description: FIG. 14. Data showing that pre-BCR signaling contributes to survival of some BCP-ALL blasts. Data are shown for patient #280. A) Increase in apoptosis (Annexin labeling) and loss of cell viability (7AAD labeling) after prolonged incubation with dasatinib (10 μM) alone or in combination with vincristine over doses of 0.1 ng/ml to 100 ng/ml. B) Increase in apoptosis after 24-hour incubation of #280 patient cells with α-VpreB Fab (5 μM) alone or in combination with low dose vincristine (10 ng/ml).
After stated incubation +/− inhibitors or crosslinking agents, cells were washed with ice-cold PBS and held for 15 minutes on ice in Tris-based lysis buffer, with 1% NP-40 and protease and phosphatase inhibitors (ThermoFisher Scientific, Waltham, Mass.). For effects of inhibitors on BCL6 expression, treatments were carried out for 24 hours. Lysates were clarified by centrifugation at 14,000×g for 10 minutes at 4° C., then added to Laemmli's Reducing buffer. Proteins were separated on SDS-polyacrylamide and transferred to nitrocellulose membranes. […]

[2] = system: 697 cells; experiment: flow cytometry apoptosis assay (Annexin-V / 7-AAD), 697 cells; format: cell-based, human; settings: for apoptosis in cells treated with vincristine over a range of doses: inhibitor in combination with vincristine
Description: Since blocking pre-BCR pro-survival signaling may be advantageous for chemo-sensitization, one can compare apoptosis alone or in combination with a sub-lethal dose of a chemotherapeutic such as, for example, vincristine or daunorubicin.
Curves were fit using sigmoidal dose-response curve using MATLAB curve fitting toolbox (The MathWorks, Inc., Natick, Mass.).
Leukemia cell apoptosis was measured based upon binding to Annexin-V-FITC (BioLegend, Inc., San Diego, Calif.) and loss of cell viability measured by 7-AAD labeling (BioLegend, Inc., San Diego, Calif.), according to manufacturer's procedures. For receptor-binding experiments, cells were incubated under saturating conditions for 1.5 hours on ice in PBS with anti-CD79b-APC antibody (BioLegend, Inc., San Diego, Calif.) or anti-VpreB-PE antibody (BioLegend, Inc., San Diego, Calif.). […] (Bangs Laboratories, Inc., Fishers, Ind.) beads with anti-mouse Fc antibody according to manufacturer's instruction. Dissociation constants were estimated with nonlinear regression analysis under KD controlled conditions as described (Drake, A. W., and S. L. Klakamp, 2007, J Immunol Methods 318:147-152). All flow cytometry data collection was conducted on the […] platform (IntelliCyt Corp., Albuquerque, N. Mex.; Edwards et al., 2009, Methods Mol Biol 486:151-165) and analyzed with the FLOWJO Software Suite (FlowJo, LLC, Ashland, Oreg.).

[3] = system: pre-BCR signaling in 697 cells; experiment: Western blotting of pre-BCR tonic signaling (phospho-CD79a, phospho-Syk) with pervanadate; format: cell-based, human; settings: for accumulation of phospho-Syk (Syk phosphorylation): in the presence of pervanadate, 30-minute treatment
Description: (§1) Results in FIG. 8 evaluate the ability of anti-VpreB Fabs, as well as inhibitors directed at pre-BCR downstream signaling partners Lyn, Syk and SHIP1 (INPP5D), to block tonic signaling from the pre-BCR.
(§2) After stated incubation +/− inhibitors or crosslinking agents, cells were washed with ice-cold PBS and held for 15 minutes on ice in Tris-based lysis buffer, with 1% NP-40 and protease and phosphatase inhibitors (ThermoFisher Scientific, Waltham, Mass.). For effects of inhibitors on BCL6 expression, treatments were carried out for 24 hours. Lysates were clarified by centrifugation at 14,000×g for 10 minutes at 4° C., then added to Laemmli's Reducing buffer. Proteins were separated on SDS-polyacrylamide and transferred to nitrocellulose membranes. After blocking with TBST (Sigma-Aldrich, St. Louis, Mo.) with 5% BSA (Sigma-Aldrich, St. Louis, Mo.), blots were probed with antibodies specific to pCD79a (Tyr 182) (Cell Signaling Technology, Inc., Danvers, Mass.), pSyk (Tyr348) (Novus Biologicals LLC, Littleton, Colo.), pSyk (Tyr 352) (Cell Signaling Technology, Inc., Danvers, Mass.) or BCL6 (Santa Cruz Biotechnology, Inc., Dallas, Tex.). Antibodies to β-Actin (Sigma-Aldrich, St. Louis, Mo.) were used as loading controls.
BCP-ALL cells were treated with pervanadate solution as previously described (Imbert et al., 1994, Biochem J297 (Pt 1):163-173; Smrz et al., 2008, J Biol Chem 283:10904-10918). Data in FIG. 8 are reported using a linear range normalization from 0 to 1.0, whereby tonic without pervanadate treatment response was set to 0 and tonic pervanadate treatment was set to 1.0: […]

[4] = system: BCL6 expression in 697 cells; experiment: Western blotting of BCL6 expression in 697 cells; format: cell-based, human; settings: overnight (24 hours) treatment
Description: as §1, §2

[5] = biological target: T1, pre-BCR on 697 cells (Homo sapiens, UniProt P12018); experiment: Single Particle Tracking of pre-BCR diffusion on 697 cells; format: cell-based; settings: Fab 1 μM, galectin-1 10 μM; for overall diffusion (mobility) of pre-BCR: relative to tonic signaling, inhibitors 1 μM
T1 construct: endogenous in cells; host or cells: 697 (BCP-ALL cell line)
T1 sequence (P12018 20-145): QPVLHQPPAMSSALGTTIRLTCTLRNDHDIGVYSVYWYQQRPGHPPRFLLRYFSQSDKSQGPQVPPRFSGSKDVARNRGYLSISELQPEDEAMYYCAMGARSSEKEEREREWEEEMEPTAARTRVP
Description: Data are reported as changed in ensemble diffusion coefficients (MSD) for pre-BCR plus and minus saturating levels of anti-VpreB1 Fabs (1 μM). In these experiments, Fabs were added to 697 cells for 15 minutes at 37° C. prior to performing Single Particle Tracking (SPT).
Suspension cultures of BCP-ALL cell lines (697, Nalm6) were grown in RPMI 1640 with phenol red (Sigma-Aldrich, St. Louis, Mo.), with 10% (v/v) HI FBS, 1% Penicillin/Streptomycin (Gibco, Gaithersburg, Md.), and L-Glutamine 2 mM. Patient samples were cultured in IMDM, GlutaMAX medium (Gibco, Gaithersburg, Md.) supplemented with 20% (v/v) HI FBS, 1% penicillin/streptomycin, 1× insulin, transferrin and selenium (Gibco, Gaithersburg, Md.), 1 mM sodium pyruvate (Gibco, Gaithersburg, Md.), and 55 μM 2-Mercaptoethanol (Gibco, Gaithersburg, Md.). Prior to experiments, cells were washed twice with Tyrode's solution (Sigma-Aldrich, St. Louis, Mo.). Unless otherwise stated, cells were pretreated for 10 minutes with Bay-61-3606 (Santa Cruz Biotechnology, Inc., Dallas, Tex.; 1 μM), dasatinib (Santa Cruz Biotechnology, Inc., Dallas, Tex.; 1 μM), tofacitinib (Selleck Chemicals LLC, Houston, Tex.; 1 μM), anti-VpreB Fab (1 μM), 3AC (Echelon Biosciences, Inc., Salt Lake City, Utah), and/or recombinant galectin-1 (PreproTech, Inc., Rocky Hill, N.J.; 10 μM), +/− lactose.
LAB-TEK imaging chambers (ThermoFisher Scientific, Waltham, Mass.) were coated with poly-1-lysine hydrobromide (Sigma-Aldrich, St. Louis, Mo.) at 1 mg/ml in sterile water for 20 minutes at room temperature, followed by three washes. BCP-ALL cells were serum-starved in RPMI 1640 without FBS for two hours prior to being added to coated wells and incubated for 15 minutes at 37° C. QD-Fab-CD79b or QD-Fab-IgM were added at 100 pM in Tyrodes's solution (Sigma-Aldrich, St. Louis, Mo.) with 0.1% (w/v) BSA and 20 mM glucose for 10-15 minutes at 37° C.
All corresponding GPU single particle tracking and track elongation, squared displacement, mean square displacement, correlated motion, fiducial data acquisition and image registration and three-state hidden Markov Model used in this study have been described in detail previously (Low-Nam et al, 2011, Nat Struct Mol Biol 18:1244-1249).

[6] = system: patient #280 BCP-ALL blasts; experiment: flow cytometry apoptosis assay (Annexin-V / 7-AAD), patient #280 cells; format: cell-based, human; settings: patient #280 blasts, single agent, 24-hour culture (dasatinib 10 μM)
Description: Blockade of pre-BCR homotypic self-association can sensitize patient cells to vincristine. […] Blasts from patient #280 also were very sensitive to dasatinib as a single agent (80% 7-AAD/Annexin-V positive after 24-hour culture). Longer incubations were not feasible, since cells from this patient were 40% 7-AAD positive when incubated with no drug or in the presence of vincristine up to 5 ng/ml.
Leukemia cell apoptosis was measured based upon binding to Annexin-V-FITC (BioLegend, Inc., San Diego, Calif.) and loss of cell viability measured by 7-AAD labeling (BioLegend, Inc., San Diego, Calif.), according to manufacturer's procedures. For receptor-binding experiments, cells were incubated under saturating conditions for 1.5 hours on ice in PBS with anti-CD79b-APC antibody (BioLegend, Inc., San Diego, Calif.) or anti-VpreB-PE antibody (BioLegend, Inc., San Diego, Calif.). Flow results were calibrated using QUANTUM SIMPLY CELLULAR (Bangs Laboratories, Inc., Fishers, Ind.) beads with anti-mouse Fc antibody according to manufacturer's instruction. […] All flow cytometry data collection was conducted on the HYPERCYT platform (IntelliCyt Corp., Albuquerque, N. Mex.; Edwards et al., 2009, Methods Mol Biol 486:151-165) and analyzed with the FLOWJO Software Suite (FlowJo, LLC, Ashland, Oreg.).

[7] = biological target: T2, pre-BCR on 697 cells (Homo sapiens, UniProt P12018+P15814); experiment: fluorescence imaging of pre-BCR clustering by labeled galectin-1; format: cell-based; settings: Alexa 555-conjugated galectin-1 10 μM, within five minutes
T2 construct: endogenous in cells; host or cells: 697 (BCP-ALL cell line)
T2 sequence (P15814 38-213, one chain of several): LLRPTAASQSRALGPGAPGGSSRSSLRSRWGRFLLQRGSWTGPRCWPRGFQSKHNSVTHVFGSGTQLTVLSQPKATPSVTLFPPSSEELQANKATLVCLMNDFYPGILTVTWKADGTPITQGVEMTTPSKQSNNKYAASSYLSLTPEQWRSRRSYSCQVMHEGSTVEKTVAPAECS

Compound | apoptosis in cells treated with vincristine over a range of doses [2] | accumulation of phospho-Syk (Syk phosphorylation) [3] | BCL6 expression [4] | overall diffusion (mobility) of pre-BCR [5] | further results
CC(C)CCC[C@@H](C)[C@H]1CC[C@H]2[C@@H]3CC[C@H]4C[C@H](N)CC[C@]4(C)[C@H]3CC[C@]12C [3AC, 3-a-aminocholestane] | potentiate apoptosis | slightly elevated | completely repressed | – | BCL6 levels [1]: marked decline
COc1ccc(-c2cc3nccn3c(Nc3ncccc3C(N)=O)n2)cc1OC [Bay-61-3606] | potentiate apoptosis | – | – | overall increased mobility | diminished accumulation of Syk PY352 ([3]; pervanadate-treated): approximately 20%
Cc1nc(Nc2ncc(C(=O)Nc3c(C)cccc3Cl)s2)cc(N2CCN(CCO)CC2)n1 [dasatinib] | – | – | – | – | 7-AAD/Annexin-V positive [6]: 80%
C[C@@H]1CCN(C(=O)CC#N)C[C@@H]1N(C)c1ncnc2[nH]ccc12 [tofacitinib] | potentiate apoptosis | did not alter | elevated levels | not Jak (tofacitinib) results in a global increase | –
CC[C@]1(O)C[C@H]2CN(CCc3c([nH]c4ccccc34)[C@@](C(=O)OC)(c3cc4c(cc3OC)N(C=O)[C@H]3[C@@](O)(C(=O)OC)[C@H](OC(C)=O)[C@]5(CC)C=CCN6CC[C@]43[C@@H]65)C2)C1 [vincristine] | – | – | – | – | apoptotic cells ([2]; vincristine 10 ng/ml, with or without VpreB Fabs (5 μM)): 69.9%
galectin-1: recombinant human galectin-1, crosslinks pre-BCR via surrogate light chain | – | – | – | far less mobile | clustering of the pre-BCR [7]: marked clustering of the pre-BCR; immobile fraction of pre-BCR (D<0.05 μm^2/sec) [5]: A large fraction of pre-BCR become essentially immobile
